Legend:
[1] = Acute toxicity in mouse assessed as increase in body weight at 1000 mg/kg,IG administrated for 2 weeks; format: organism-based; settings: in vivo, po, 336 h
[2] = Acute toxicity in mouse assessed as death at 1000 mg/kg,IG administrated for 2 weeks; format: organism-based; settings: in vivo, po, 336 h
[3] = AUC (0-t) in Sprague-Dawley rat at 10 mg/kg,po; format: ADME, organism-based; design: dose 10 mg/kg, route po; settings: in vivo
[4] = Acute toxicity in mouse assessed as pathological changes in heart at 1000 mg/kg,IG administrated for 2 weeks by hematoxylin-eosin staining based analysis; format: organism-based; settings: in vivo, po, 336 h
[5] = Acute toxicity in mouse assessed as pathological changes in brain at 1000 mg/kg,IG administrated for 2 weeks by hematoxylin-eosin staining based analysis; format: organism-based; settings: in vivo, po, 336 h
[6] = Clearance in Sprague-Dawley rat at 1 mg/kg,iv; format: ADME, organism-based; settings: in vivo
Cytochrome P450 3A4 [7] = target: T1, Cytochrome P450 3A4 (Homo sapiens, UniProt P08684); assay: Inhibition of CYP3A4M (unknown origin); format: ADME
[8] = system: Human immunodeficiency virus 1; assay: Antiviral activity against HIV1 harboring E138K mutant infected in human MT4 cells assessed as protection against virus-induced cytopathicity; format: functional, organism-based; settings: Human immunodeficiency virus 1, MT4
[9] = AUC (0-infinity) in Sprague-Dawley rat at 1 mg/kg,iv; format: ADME, organism-based; design: dose 1 mg/kg, route iv; settings: in vivo
[10] = Acute toxicity in mouse assessed as pathological changes in kidney at 1000 mg/kg,IG administrated for 2 weeks by hematoxylin-eosin staining based analysis; format: organism-based; settings: in vivo, po, 336 h
[11] = Acute toxicity in mouse assessed as pathological changes in lung at 1000 mg/kg,IG administrated for 2 weeks by hematoxylin-eosin staining based analysis; format: organism-based; settings: in vivo, po, 336 h
Cytochrome P450 2C19 = Cytochrome P450 2C19 (Homo sapiens, UniProt P33261); assay: Inhibition of CYP2C19 (unknown origin); format: ADME
[12] = Oral bioavailability in Sprague-Dawley rat at 10 mg/kg; format: ADME, organism-based; settings: in vivo
Cytochrome P450 2C9 = Cytochrome P450 2C9 (Homo sapiens, UniProt P11712); assay: Inhibition of CYP2C9 (unknown origin); format: ADME
[13] = Selectivity index, ratio of CC50 for cytotoxicity against human MT4 cells to EC50 for antiviral activity against wild type HIV1 IIIB infected in human MT4 cells; format: toxicity, cell-based; settings: read-out: Ratio CC50/EC50
[14] = Cmax in Sprague-Dawley rat at 10 mg/kg,po; format: ADME, organism-based; design: dose 10 mg/kg, route po; settings: in vivo
[15] = Acute toxicity in mouse assessed as pathological changes in liver at 1000 mg/kg,IG administrated for 2 weeks by hematoxylin-eosin staining based analysis; format: organism-based; settings: in vivo, po, 336 h
[16] = Cytotoxicity against human MT4 cells assessed as reduction in cell viability; format: toxicity, cell-based
[17] = Acute toxicity in mouse assessed as pathological changes in spleen at 1000 mg/kg,IG administrated for 2 weeks by hematoxylin-eosin staining based analysis; format: organism-based; settings: in vivo, po, 336 h
[18] = system: Human immunodeficiency virus 1; assay: Antiviral activity against HIV1 harboring L100I mutant infected in human MT4 cells assessed as protection against virus-induced cytopathicity; format: functional, organism-based; settings: Human immunodeficiency virus 1, MT4
[19] = AUC (0-infinity) in Sprague-Dawley rat at 10 mg/kg,po; format: ADME, organism-based; design: dose 10 mg/kg, route po; settings: in vivo
[20] = target: Voltage-gated inwardly rectifying potassium channel KCNH2 (Homo sapiens, UniProt Q12809); assay: Inhibition of human ERG potassium channel expressed in CHO cells by manual patch clamp method; format: toxicity, cell-based
Cytochrome P450 2D6 = Cytochrome P450 2D6 (Homo sapiens, UniProt P10635); assay: Inhibition of CYP2D6 (unknown origin); format: ADME
Cytochrome P450 1A2 = target: T2, Cytochrome P450 1A2 (Homo sapiens, UniProt P05177); assay: Inhibition of CYP1A2 (unknown origin); format: ADME
T2 sequence (P05177 whole entry): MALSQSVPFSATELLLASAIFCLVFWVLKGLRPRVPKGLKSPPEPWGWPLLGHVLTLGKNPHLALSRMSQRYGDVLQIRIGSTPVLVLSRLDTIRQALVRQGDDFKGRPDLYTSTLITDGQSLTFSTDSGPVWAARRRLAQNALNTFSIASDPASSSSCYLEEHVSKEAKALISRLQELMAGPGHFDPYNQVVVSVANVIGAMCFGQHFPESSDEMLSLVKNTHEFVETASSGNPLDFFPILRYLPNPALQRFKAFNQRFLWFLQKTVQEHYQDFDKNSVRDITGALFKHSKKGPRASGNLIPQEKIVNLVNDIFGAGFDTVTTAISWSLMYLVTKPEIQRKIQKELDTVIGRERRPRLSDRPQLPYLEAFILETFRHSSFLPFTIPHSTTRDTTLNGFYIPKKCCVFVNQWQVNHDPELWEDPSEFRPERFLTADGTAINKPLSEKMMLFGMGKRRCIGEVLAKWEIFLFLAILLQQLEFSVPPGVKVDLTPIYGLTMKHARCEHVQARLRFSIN

[21] = system: Human immunodeficiency virus 1; assay: Antiviral activity against HIV1 harboring Y188L mutant infected in human MT4 cells assessed as protection against virus-induced cytopathicity; format: functional, organism-based; settings: Human immunodeficiency virus 1, MT4
[22] = Apparent volume of distribution in Sprague-Dawley rat at 1 mg/kg,iv; format: ADME, organism-based; settings: in vivo, read-out: Vz
Cytochrome P450 3A4 [23] = target: T1, Cytochrome P450 3A4; assay: Inhibition of CYP3A4T (unknown origin); format: ADME
[24] = AUC (0-t) in Sprague-Dawley rat at 1 mg/kg,iv; format: ADME, organism-based; design: dose 1 mg/kg, route iv; settings: in vivo
[25] = Cmax in Sprague-Dawley rat at 1 mg/kg,iv; format: ADME, organism-based; design: dose 1 mg/kg, route iv; settings: in vivo
[26] = system: Human immunodeficiency virus 1; assay: Antiviral activity against wild type HIV1 IIIB infected in human MT4 cells assessed as protection against virus-induced cytopathicity; format: functional, organism-based; settings: Human immunodeficiency virus 1, IIIB
[27] = Tmax in Sprague-Dawley rat at 10 mg/kg,po; format: ADME, organism-based; settings: in vivo
[28] = target: Human immunodeficiency virus type 1 reverse transcriptase (Human immunodeficiency virus 1, UniProt Q72547); assay: Inhibition of wild type HIV-1 reverse transcriptase assessed as inhibition of biotin deoxyuridine triphosphate incorporation into […]
[29] = system: Human immunodeficiency virus 1; assay: Antiviral activity against HIV1 harboring Y181C mutant infected in human MT4 cells assessed as protection against virus-induced cytopathicity; format: functional, organism-based; settings: Human immunodeficiency virus 1, MT4
[30] = Tmax in Sprague-Dawley rat at 1 mg/kg,iv; format: ADME, organism-based; settings: in vivo
[31] = system: Human immunodeficiency virus 1; assay: Antiviral activity against HIV1 harboring K103 N mutant infected in human MT4 cells assessed as protection against virus-induced cytopathicity; format: functional, organism-based; settings: Human immunodeficiency virus 1, MT4
[32] = Half life in Sprague-Dawley rat at 10 mg/kg,po; format: ADME, organism-based; settings: in vivo
[33] = Acute toxicity in mouse assessed as behavioral abnormalities at 1000 mg/kg,IG administrated for 2 weeks; format: organism-based; settings: in vivo, po, 336 h
[34] = Half life in Sprague-Dawley rat at 1 mg/kg,iv; format: ADME, organism-based; settings: in vivo

T1 sequence (P08684 whole entry): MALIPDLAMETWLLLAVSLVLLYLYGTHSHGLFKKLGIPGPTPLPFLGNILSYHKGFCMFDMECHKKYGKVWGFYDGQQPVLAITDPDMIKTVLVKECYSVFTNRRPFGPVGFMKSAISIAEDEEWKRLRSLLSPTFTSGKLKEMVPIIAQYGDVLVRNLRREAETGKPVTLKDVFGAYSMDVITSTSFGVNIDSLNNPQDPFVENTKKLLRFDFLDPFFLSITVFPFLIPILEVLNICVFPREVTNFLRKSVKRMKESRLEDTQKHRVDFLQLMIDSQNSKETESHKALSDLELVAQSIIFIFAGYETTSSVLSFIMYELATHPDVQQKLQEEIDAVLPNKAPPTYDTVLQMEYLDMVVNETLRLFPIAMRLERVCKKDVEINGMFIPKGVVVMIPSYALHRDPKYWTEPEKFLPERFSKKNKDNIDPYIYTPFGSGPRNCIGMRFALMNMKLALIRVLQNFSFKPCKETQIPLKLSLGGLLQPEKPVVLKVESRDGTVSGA
Sequence of Voltage-gated inwardly rectifying potassium channel KCNH2 (Q12809 whole entry): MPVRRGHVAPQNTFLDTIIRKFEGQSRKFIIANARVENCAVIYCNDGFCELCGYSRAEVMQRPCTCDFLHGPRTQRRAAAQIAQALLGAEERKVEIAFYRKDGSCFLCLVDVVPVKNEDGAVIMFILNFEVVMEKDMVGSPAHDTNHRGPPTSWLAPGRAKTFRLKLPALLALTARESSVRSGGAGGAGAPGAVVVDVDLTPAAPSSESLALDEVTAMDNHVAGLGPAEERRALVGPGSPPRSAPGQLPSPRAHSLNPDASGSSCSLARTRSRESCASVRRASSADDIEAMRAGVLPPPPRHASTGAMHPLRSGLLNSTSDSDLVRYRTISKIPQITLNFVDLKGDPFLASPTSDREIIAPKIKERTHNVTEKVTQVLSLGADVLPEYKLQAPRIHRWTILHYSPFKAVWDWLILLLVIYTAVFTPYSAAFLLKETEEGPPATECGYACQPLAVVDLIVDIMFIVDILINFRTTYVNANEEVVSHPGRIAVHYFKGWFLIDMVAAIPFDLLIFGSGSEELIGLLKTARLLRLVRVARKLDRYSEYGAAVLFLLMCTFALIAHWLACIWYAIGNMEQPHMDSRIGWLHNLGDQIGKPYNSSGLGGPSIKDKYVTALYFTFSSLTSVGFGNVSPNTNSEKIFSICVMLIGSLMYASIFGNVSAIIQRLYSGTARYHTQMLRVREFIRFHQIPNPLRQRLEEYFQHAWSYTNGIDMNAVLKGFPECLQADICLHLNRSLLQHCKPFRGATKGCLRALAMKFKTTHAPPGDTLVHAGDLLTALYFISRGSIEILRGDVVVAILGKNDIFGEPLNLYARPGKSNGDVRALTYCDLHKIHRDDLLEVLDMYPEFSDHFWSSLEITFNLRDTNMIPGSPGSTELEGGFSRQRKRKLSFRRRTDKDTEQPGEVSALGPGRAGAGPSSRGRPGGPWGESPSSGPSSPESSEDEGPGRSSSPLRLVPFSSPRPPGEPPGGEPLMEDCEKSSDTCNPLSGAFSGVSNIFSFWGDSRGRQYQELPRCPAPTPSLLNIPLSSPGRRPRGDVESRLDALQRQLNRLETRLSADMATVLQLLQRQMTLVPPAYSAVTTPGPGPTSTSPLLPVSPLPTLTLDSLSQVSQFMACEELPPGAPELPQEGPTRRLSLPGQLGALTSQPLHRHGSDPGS
Sequence of Cytochrome P450 2D6 (P10635 whole entry): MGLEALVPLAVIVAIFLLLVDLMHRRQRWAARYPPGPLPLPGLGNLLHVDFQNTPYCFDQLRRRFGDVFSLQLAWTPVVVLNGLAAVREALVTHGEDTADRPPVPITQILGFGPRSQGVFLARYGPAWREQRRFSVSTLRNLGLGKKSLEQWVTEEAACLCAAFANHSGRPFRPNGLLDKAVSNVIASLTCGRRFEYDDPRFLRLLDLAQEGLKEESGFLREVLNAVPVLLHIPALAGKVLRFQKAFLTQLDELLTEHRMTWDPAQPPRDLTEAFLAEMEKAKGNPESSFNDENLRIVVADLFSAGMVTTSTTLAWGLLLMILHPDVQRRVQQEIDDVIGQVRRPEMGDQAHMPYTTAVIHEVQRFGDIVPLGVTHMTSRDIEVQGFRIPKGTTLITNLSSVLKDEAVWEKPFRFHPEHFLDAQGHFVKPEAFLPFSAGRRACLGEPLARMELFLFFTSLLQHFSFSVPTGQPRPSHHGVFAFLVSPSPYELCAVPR
Sequence of Cytochrome P450 2C19 (P33261 whole entry): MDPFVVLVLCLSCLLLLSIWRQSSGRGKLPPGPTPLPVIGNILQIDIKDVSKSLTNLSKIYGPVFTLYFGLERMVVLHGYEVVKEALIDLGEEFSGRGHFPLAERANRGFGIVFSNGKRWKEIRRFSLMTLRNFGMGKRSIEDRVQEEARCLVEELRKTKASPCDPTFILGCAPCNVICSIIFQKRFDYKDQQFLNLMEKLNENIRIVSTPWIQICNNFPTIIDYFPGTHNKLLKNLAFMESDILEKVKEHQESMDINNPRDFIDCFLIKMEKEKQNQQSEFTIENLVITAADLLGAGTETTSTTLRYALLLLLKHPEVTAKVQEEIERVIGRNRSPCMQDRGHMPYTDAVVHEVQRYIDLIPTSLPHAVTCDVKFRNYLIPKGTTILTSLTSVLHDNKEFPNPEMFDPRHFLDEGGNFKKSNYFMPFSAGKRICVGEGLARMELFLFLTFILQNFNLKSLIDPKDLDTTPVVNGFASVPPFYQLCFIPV
Sequence of Cytochrome P450 2C9 (P11712 whole entry): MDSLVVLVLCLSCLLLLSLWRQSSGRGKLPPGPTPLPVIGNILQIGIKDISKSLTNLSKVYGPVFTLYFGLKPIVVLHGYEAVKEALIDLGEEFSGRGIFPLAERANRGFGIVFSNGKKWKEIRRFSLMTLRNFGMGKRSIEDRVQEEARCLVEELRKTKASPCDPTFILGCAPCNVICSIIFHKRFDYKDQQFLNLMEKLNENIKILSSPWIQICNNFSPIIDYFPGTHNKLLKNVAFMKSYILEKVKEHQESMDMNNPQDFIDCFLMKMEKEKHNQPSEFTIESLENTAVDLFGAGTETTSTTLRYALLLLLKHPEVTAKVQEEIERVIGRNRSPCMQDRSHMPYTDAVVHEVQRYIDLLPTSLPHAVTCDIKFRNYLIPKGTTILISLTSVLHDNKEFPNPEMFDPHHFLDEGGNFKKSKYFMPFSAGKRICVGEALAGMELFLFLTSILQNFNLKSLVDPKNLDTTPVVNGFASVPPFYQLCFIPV

O=c1[nH]c(=O)n(COCc2ccccc2)c(Sc2cc(F)ccc2F)c1C1CC1
Activity [1]: Non-Toxic
Activity [2]: Non-Toxic
AUC(0-t) [3]: 8660 ng·h/mL
Activity [4]: Non-Toxic
Activity [5]: Non-Toxic
clearance [6]: 15.6 mL/min/kg
IC50 (Cytochrome P450 3A4 [7]): > 50 µM
EC50 [8]: 0.09 µM
AUC(0-inf) [9]: 1100 ng·h/mL
Activity [10]: Non-Toxic
Activity [11]: Non-Toxic
IC50 (Cytochrome P450 2C19): 30.3 µM
bioavailability [12]: 86.7%
IC50 (Cytochrome P450 2C9): 27.6 µM
selectivity ratio [13]: 2330
Cmax [14]: 3520 ng/mL
Activity [15]: Non-Toxic
CC50 [16]: 39.2 µM
Activity [17]: Non-Toxic
EC50 [18]: 0.38 µM
AUC(0-inf) [19]: 9560 ng·h/mL
IC50 [20]: > 40 µM
IC50 (Cytochrome P450 2D6): > 50 µM
IC50 (Cytochrome P450 1A2): > 50 µM
EC50 [21]: > 39.2 µM
Vd [22]: 0.698 L/kg
IC50 (Cytochrome P450 3A4 [23]): > 50 µM
AUC(0-t) [24]: 1100 ng·h/mL
Cmax [25]: 2030 ng/mL
EC50 [26]: 0.017 µM
Tmax [27]: 35 min
IC50 [28]: 0.03 µM
EC50 [29]: 1.85 µM
Tmax [30]: 4.98 min
EC50 [31]: 2.64 µM
half-life [32]: 151 min
Activity [33]: Non-Toxic
half-life [34]: 30.8 min

From ChEMBL document CHEMBL5331066, “Structure-guided design of novel HEPT analogs with enhanced potency and safety: From Isopropyl-HEPTs to Cyclopropyl-HEPTs” (Eur J Med Chem, 2023)
